Tests used:
[1] = system: sphingolipid de novo synthesis pathway; assay: Measurement of sphingolipids in tissues of aged mice treated with myriocin; type: in vivo, mouse
Method: To examine whether a causal relationship could underlie the correlation between SphPC1 and muscle mass and function, it was tested whether inhibition of sphingolipid de novo biosynthesis pathway could protect against age-related muscle dysfunction. Aged (18-month-old) C57Bl/6JRj mice were treated for 5 months on chow diet with myriocin, a specific inhibitor of SPT, the first and rate-limiting enzyme of the sphingolipid de novo synthesis pathway, and whose expression in skeletal muscle was negatively correlated with muscular fitness in BXDs.
Animals. Young (2-month-old) and aged (18-month-old) C57Bl/6JRj mice were purchased from Janvier Labs. EchoMRI measuring the fat and lean body mass, were measured before and after the treatment. The dose of myriocin was 0.4 mg/kg/3 times a week. Myriocin (Enzo Life Sciences, Farmingdale, N.Y.) was first dissolved in DMSO which was then mixed with PBS so that each mouse received 1.5 μL DMSO per injection. Animals were fed on a standard chow diet. All animals were housed in micro-isolator cages in a room illuminated from 7:00 AM to 7:00 PM with ad libitum access to diet and water. All the animal experiments are authorized by animal license 2890.1 and 3341 in Canton of Vaud, Switzerland.
Measurement of sphingolipids. Plasma (100 μL) and weighed tissue samples (20-60 mg) were transferred to 2 ml Safe-Lock PP-tubes, and extracted. In brief, samples were homogenized using two 6 mm steal beads on a Mixer Mill (Retsch, Haan, GER; 2×10 sec, frequency 30/s) in 700 μL MTBE/MeOH (3/1, v/v) containing 500 μmol butylated hydroxytoluene, 1% acetic acid, and 200 μmol of internal standards (IS, d18:1/17:0 ceramide, d18:1/17:0 sphingomyelin, Avanti Polar Lipids, Alabaster, Ala., USA) per sample. Total lipid extraction was performed under constant shaking for 30 min at RT. After addition of 140 μL dH2O and further incubation for 30 min on RT, samples were centrifuged at 1,000×g for 15 min to establish phase separation. 500 μL of the upper, organic phase were collected and dried under a stream of nitrogen. Lipids were resolved in 700 μL 2-propanol/methanol/water (7/2.5/1, v/v/v) for UPLC-MS analysis. Remaining tissues were dried, solubilized in NaOH (0.3 N) at 65° C. for 4 h and the protein content was determined using Pierce™ BCA reagent (Thermo Fisher Scientific, Waltham, Mass., USA) and BSA as standard.
Chromatographic separation was modified after Knittelfelder et al. using an ACQUITY-UPLC system (Waters Corporation), equipped with a Luna omega C18 column (2.1×50 mm, 1.6 μm; Phenomenex) starting a 20 min linear gradient with 80% solvent A (MeOH/H2O, 1/1, v/v; 10 mM ammonium acetate, 0.1% formic acid, 8 μM phosphoric acid). The column compartment was kept on 50° C. A EVOQ Elite™ triple quadrupole mass spectrometer (Bruker) equipped with an ESI source was used for detection of lipids in positive ionization mode. Lipid species were analyzed by selected reaction monitoring (ceramide, [M+H]+ to m/z 264.3, 22 eV, 60 ms; sphingomyelin, [M+H]+ to m/z 184.1, 20 eV, 40 ms; resolution 0.7 Q1/Q3). Data acquisition was done by MS Workstation (Bruker). Data were normalized for recovery, extraction-, and ionization efficacy by calculating analyte/IS ratios (AU) and expressed as AU/g tissue or AU/mL plasma.
Measurement of deoxysphingolipids. […] An aliquot (50 μL) of homogenate was dried under air and resuspended in RIPA buffer for protein quantification using BCA assay (BCA Protein Assay, Lambda, Biotech Inc., US). […]

aged C57Bl/6JRj mice = assay: Oral glucose tolerance test in aged mice; type: in vivo, mouse; conditions: aged chow-fed myriocin treated mice
Text: Frailty is associated with multimorbidity, including diabetes.

[2] = quadriceps of aged myriocin treated mice

`CCCCCCC(=O)CCCCCCC=CCC(O)C(O)C(N)(CO)C(=O)O` (stereo not drawn) [myriocin, 2-Amino-3,4-dihydroxy-2-(hydroxymethyl)-14-oxoicos-6-enoic acid] was tested, and the “total ceramide contents of skeletal muscle” value ([1]; aged (18-month-old) C57Bl/6JRj mice, myriocin 0.4 mg/kg i.p. 3 times per week, 5 months, vs DMSO) was “reduced”, the “skeletal muscle deoxysphingolipid contents” value ([1]; aged mice, myriocin 0.4 mg/kg i.p. 3 times per week, 5 months, smaller effect than on canonical sphingolipids) was “reduced” and the “sphinganine (SA) level in skeletal muscle” value [1, 2] was “lower levels”. The “sphingosine (SO) level in skeletal muscle” value [1, 2] was “lower levels”, the “individual ceramide species in skeletal muscle” value ([1]; quadriceps, aged mice, myriocin 0.4 mg/kg i.p. 3 times per week, 5 months) was “reduced” and the glucose tolerance (aged C57Bl/6JRj mice) was “improved”.

From US20220288004A1, “TREATMENT AND PREVENTION OF AGING RELATED-DISEASE AND/OR AGING BY THE INHIBITION OF SPHINGOLIPIDS” (ECOLE POLYTECHNIQUE FEDERALE DE LAUSANNE (EPFL), priority 2019, published 2022)
